Where “and” joins values, the source holds several entries; their conditions need not be identical. Equal values may be shown once. Toxic doses and inconclusive results are not listed. How the source made its calls: active means survival T/C of 150% or more; inactive means T/C below 125% in these data.
System: P388 leukemia ip, CD2F1 mice, survival T/C
Test: NCI In Vivo Anticancer Drug Screen. Data for tumor model P388 Leukemia (intraperitoneal) in CD2F1 (CDF1) mice
Settings: endpoint: median survival time, higher = longer survival
Procedure, shortened: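 Mice carrying the transplanted tumor received test compound or vehicle. Survival was recorded in each group, and the value is the treated-group measurement divided by that of the vehicle-treated control group.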

[1] = dose: 40.0 mg/kg/injection, schedule: Q01DX009 (ip), vehicle: Klucel (hydroxypropylcellulose) (HPC)
[2] = dose: 50.0 mg/kg/injection, schedule: Q01DX005 (ip), vehicle: saline with Tween-80
[3] = dose: 100.0 mg/kg/injection, schedule: Q01DX005 (ip), vehicle: saline with Tween-80
[4] = dose: 200.0 mg/kg/injection, schedule: Q01DX005 (ip), vehicle: saline with Tween-80
[5] = dose: 50.0 mg/kg/injection, schedule: Q01DX005 (ip), vehicle: Klucel (hydroxypropylcellulose) (HPC)
[6] = dose: 100.0 mg/kg/injection, schedule: Q01DX005 (ip), vehicle: Klucel (hydroxypropylcellulose) (HPC)
[7] = dose: 200.0 mg/kg/injection, schedule: Q01DX005 (ip), vehicle: Klucel (hydroxypropylcellulose) (HPC)
[8] = dose: 12.5 mg/kg/injection, schedule: Q01DX009 (ip), vehicle: saline
[9] = dose: 25.0 mg/kg/injection, schedule: Q01DX009 (ip), vehicle: saline
[10] = dose: 100.0 mg/kg/injection, schedule: Q04DX002 (ip), vehicle: saline with Tween-80
[11] = dose: 200.0 mg/kg/injection, schedule: Q04DX002 (ip), vehicle: saline with Tween-80
[12] = dose: 100.0 mg/kg/injection, schedule: Q04DX002 (ip), vehicle: Klucel (hydroxypropylcellulose) (HPC)
[13] = dose: 200.0 mg/kg/injection, schedule: Q04DX002 (ip), vehicle: Klucel (hydroxypropylcellulose) (HPC)
[14] = dose: 400.0 mg/kg/injection, schedule: Q04DX002 (ip), vehicle: Klucel (hydroxypropylcellulose) (HPC)
[15] = dose: 50.0 mg/kg/injection, schedule: Q01DX009 (ip), vehicle: saline with Tween-80
[16] = dose: 100.0 mg/kg/injection, schedule: Q01DX009 (ip), vehicle: saline with Tween-80
[17] = dose: 200.0 mg/kg/injection, schedule: Q01DX009 (ip), vehicle: saline with Tween-80
[18] = dose: 5.0 mg/kg/injection, schedule: Q01DX009 (ip), vehicle: saline
[19] = dose: 10.0 mg/kg/injection, schedule: Q01DX009 (ip), vehicle: saline
[20] = dose: 20.0 mg/kg/injection, schedule: Q01DX009 (ip), vehicle: saline

Measured: T/C

O=C1c2c(O)ccc(O)c2C(=O)c2c(NCCCCCO)ccc(NCCCCCO)c21
inactive: dose: 20.0 mg/kg/injection, schedule: Q01DX009 (ip), vehicle: Klucel (hydroxypropylcellulose) (HPC) 94 % of control | [1] 89 % of control | dose: 80.0 mg/kg/injection, schedule: Q01DX009 (ip), vehicle: Klucel (hydroxypropylcellulose) (HPC) 93 % of control | dose: 160.0 mg/kg/injection, schedule: Q01DX009 (ip), vehicle: Klucel (hydroxypropylcellulose) (HPC) 93 % of control | dose: 320.0 mg/kg/injection, schedule: Q01DX009 (ip), vehicle: Klucel (hydroxypropylcellulose) (HPC) 111 % of control

Oc1c(N=Nc2nn[nH]n2)ccc2ccccc12
inactive: [2] 105 % of control | [3] 97 % of control | [4] 99 % of control

O=C1OC(c2ccccc2Br)=N/C1=C/c1ccccc1
inactive: [5] 99 % of control | [6] 91 % of control | [7] 98 % of control

CCOc1c(N=Nc2ccccc2)c(C)nn1C(N)=S
inactive: dose: 60.0 mg/kg/injection, schedule: Q01DX005 (ip), vehicle: Klucel + Tween-80 95 % of control | dose: 120.0 mg/kg/injection, schedule: Q01DX005 (ip), vehicle: Klucel + Tween-80 102 % of control | dose: 240.0 mg/kg/injection, schedule: Q01DX005 (ip), vehicle: Klucel + Tween-80 95 % of control

O=c1[nH]c2nc(Cl)nc(Cl)c2[nH]1
inactive: [2] 98 % of control | [3] 94 % of control | [4] 93 % of control

C1CCN2CC3CC(CN4CCCC[C@@H]34)[C@@H]2C1
inactive: dose: 25.0 mg/kg/injection, schedule: Q01DX005 (ip), vehicle: Klucel (hydroxypropylcellulose) (HPC) 100 % of control

CC(NC(=O)C(Cc1ccc(OC(=O)OCc2ccccc2)cc1)NC(=O)OCc1ccccc1)C(=O)OCc1ccccc1 (stereo not given)
inactive: [2] 96 % of control | [3] 92 % of control

COc1cc(NCCCCCCNCC(C)C)c2nccc(C)c2c1
inactive: dose: 6.25 mg/kg/injection, schedule: Q01DX009 (ip), vehicle: saline 95 % of control | [8] 95 % of control | [9] 96 % of control

CC(C)CC(Nc1ncnc2c1CCc1ccccc1-2)C(=O)O (stereo not given)
inactive: dose: 50.0 mg/kg/injection, schedule: Q04DX002 (ip), vehicle: saline with Tween-80 100 % of control | [10] 90 % of control | [11] 99 % of control

CCCCCCCCCCCC(=O)NC(=O)N1CCOCC1
inactive: dose: 100.0 mg/kg/injection, schedule: Q01DX001 (ip), vehicle: saline with Tween-80 95 % of control | dose: 200.0 mg/kg/injection, schedule: Q01DX001 (ip), vehicle: saline with Tween-80 100 % of control | dose: 400.0 mg/kg/injection, schedule: Q01DX001 (ip), vehicle: saline with Tween-80 100 % of control

C[C@@H]1CC[C@@]2(NC1)O[C@H]1C[C@H]3[C@@H]4CCC5=CC(=O)CC[C@]5(C)[C@H]4CC[C@]3(C)[C@H]1[C@@H]2C
inactive: dose: 15.0 mg/kg/injection, schedule: Q01DX009 (ip), vehicle: saline with Tween-80 102 % of control | dose: 30.0 mg/kg/injection, schedule: Q01DX009 (ip), vehicle: saline with Tween-80 100 % of control | dose: 60.0 mg/kg/injection, schedule: Q01DX009 (ip), vehicle: saline with Tween-80 99 % of control | dose: 120.0 mg/kg/injection, schedule: Q01DX009 (ip), vehicle: saline with Tween-80 93 % of control

O=S(c1ccccc1)c1ccccc1C(O)(C(F)(F)F)C(F)(F)F (stereo not given)
inactive: [12] 96 % of control | [13] 100 % of control | [14] 101 % of control

C=C(C)[C@@H](/C=C/[C@@H](C)[C@H]1CC[C@H]2C3=CC[C@H]4C[C@@H](O)CC[C@]4(C)[C@H]3CC[C@]12C)CC
inactive: [15] 90 % of control | dose: 50.0 mg/kg/injection, schedule: Q04DX003 (ip), vehicle: saline with Tween-80 95 % of control | [16] 90 % of control | dose: 100.0 mg/kg/injection, schedule: Q04DX003 (ip), vehicle: saline with Tween-80 90 % of control | [17] 100 % of control | dose: 200.0 mg/kg/injection, schedule: Q04DX003 (ip), vehicle: saline with Tween-80 95 % of control

Nc1nc(C2CCCCC2)c(I)c(=O)[nH]1
inactive: [5] 101 % of control | [6] 103 % of control | [7] 97 % of control

Cn1cccc([N+](=O)[O-])c1=O
inactive: [18] 105 % of control and 109 % of control | [19] 101 % of control and 108 % of control | [8] 113 % of control and 114 % of control | [20] 102 % of control and 110 % of control | [9] 100 % of control and 107 % of control | [1] 100 % of control | dose: 40.0 mg/kg/injection, schedule: Q01DX009 (ip), vehicle: saline 105 % of control | dose: 60.0 mg/kg/injection, schedule: Q01DX009 (ip), vehicle: Klucel (hydroxypropylcellulose) (HPC) 104 % of control

O=c1c2[nH]c3ccccc3sc=2c(=O)c2ccccc12
inactive: [15] 90 % of control | [16] 91 % of control | [17] 106 % of control

O=C1CN(c2cccc(Cl)c2)C(=O)CN1/N=C/c1ccc[nH]1
inactive: [2] 92 % of control | [3] 102 % of control | [4] 90 % of control

COc1ccc(N/N=C(/c2ccccc2)c2noc(-c3ccccc3)n2)cc1
inactive: [5] 101 % of control | [6] 94 % of control | [7] 93 % of control

CC(C)Oc1ccc(C(=O)NS(=O)(=O)c2ccc(N=CC3C(=O)N(c4ccccc4)N(c4ccccc4)C3=O)cc2)cc1
inactive: dose: 100.0 mg/kg/injection, schedule: Q01DX009 (ip), vehicle: Klucel (hydroxypropylcellulose) (HPC) 92 % of control | dose: 200.0 mg/kg/injection, schedule: Q01DX009 (ip), vehicle: Klucel (hydroxypropylcellulose) (HPC) 86 % of control

CC(C)(C)OSc1ccccc1
inactive: [12] 101 % of control | [13] 97 % of control | [14] 102 % of control

COc1cc(O)c(Cc2ccccc2O)c(O)c1C(=O)CCc1ccccc1
inactive: dose: 1.25 mg/kg/injection, schedule: Q01DX009 (ip), vehicle: saline with Tween-80 100 % of control | dose: 1.25 mg/kg/injection, schedule: Q01DX009 (ip), vehicle: saline 104 % of control | dose: 2.5 mg/kg/injection, schedule: Q01DX009 (ip), vehicle: saline with Tween-80 105 % of control | dose: 2.5 mg/kg/injection, schedule: Q01DX009 (ip), vehicle: saline 104 % of control | dose: 5.0 mg/kg/injection, schedule: Q01DX009 (ip), vehicle: saline with Tween-80 111 % of control | [18] 104 % of control | [19] 104 % of control | [20] 101 % of control

O=C1C(O)=C(O)C(=O)c2cc3c(cc21)OCO3
inactive: dose: 60.0 mg/kg/injection, schedule: Q01DX005 (ip), vehicle: Klucel (hydroxypropylcellulose) (HPC) 98 % of control | dose: 120.0 mg/kg/injection, schedule: Q01DX005 (ip), vehicle: Klucel (hydroxypropylcellulose) (HPC) 102 % of control | dose: 240.0 mg/kg/injection, schedule: Q01DX005 (ip), vehicle: Klucel (hydroxypropylcellulose) (HPC) 102 % of control

COC1=CC2CCN3C=C(C#N)C(C#N)CC3C2C=C1OC (stereo not given)
inactive: [2] 95 % of control | [3] 111 % of control | [4] 111 % of control

O=C(O)Cc1c[nH]c2cc(Cl)cc(Cl)c12
inactive: [10] 101 % of control | [11] 104 % of control | dose: 400.0 mg/kg/injection, schedule: Q04DX002 (ip), vehicle: saline with Tween-80 101 % of control

Oc1ccc(Br)cc1C(c1ccc2c(c1)OCO2)N1CCOCC1 (stereo not given)
inactive: dose: 60.0 mg/kg/injection, schedule: Q01DX005 (ip), vehicle: saline with Tween-80 100 % of control | dose: 120.0 mg/kg/injection, schedule: Q01DX005 (ip), vehicle: saline with Tween-80 101 % of control | dose: 240.0 mg/kg/injection, schedule: Q01DX005 (ip), vehicle: saline with Tween-80 102 % of control

C[CH2][Ge]([CH2]C)[CH2]C.C[CH2][Ge]([CH2]C)[CH2]C(=O)OC
inactive: [5] 99 % of control | [6] 100 % of control | [7] 100 % of control

COc1cc(CCN(C)C)c([N+](=O)[O-])cc1OC
inactive: [8] 90 % of control | [9] 89 % of control

CCOC(=O)C(CC)C(O)(c1ccc2c(c1)OCO2)c1cc(OC)c(OC)c(OC)c1 (stereo not given)
inactive: [5] 96 % of control | [6] 94 % of control | [7] 93 % of control

Source: PubChem BioAssay AID330 (DTP/NCI, 2004)
